Laboratory results from patent US20120003191A1, “VALPROIC ACID, DERIVATIVES, ANALOGUES, AND COMPOSITIONS INCLUDING SAME AND METHODS FOR THEIR THERAPEUTIC USE” (priority 2009, published 2012).

Legend:
[1] = mice; cited from earlier work
dyw mouse model of MDC1A = experiment: VPA in the dyw mouse model of MDC1A (predicted); type: in vivo
Description: In particular, the effect of VPA on MDC1A is determined by using the dyw mouse model of MDC1A. VPA (60 mg/kg or 240 mg/kg body weight) is administered i.p. daily to male dyw mice (n=11 each, as determined by Power analysis with α=0.05, p=0.8 and r=0.5) for 6 weeks starting at 10 days of age. Daily body weights are noted and mice observed for signs of overt toxicity. Control mice of each genotype will be injected with the same volumes of sterile saline. At the end of the course of injections, mice are sacrificed and the gastrocnemius-soleus, quadriceps, heart and diaphragm harvested. Tissues are sectioned on a Leica CM 1850 cryostat to 10 μm. Hematoxylin-eosin staining is performed on the sections. The effect of VPA on the Akt pathway, fibrosis, apoptosis and/or fiber-diameter variation in skeletal muscle of dyw mice is determined by methods known to those of ordinary skill in the art including, but not limited to those described below.
As muscle fiber-diameter variation is a pathological feature in MDC1A muscle, it can be determined if treatment with VPA restores this parameter in dyw mice. Using image analysis software, muscle-fiber diameters are calculated in at least 500 fibers per mouse in both the VPA and control treated groups. […] Data is analyzed by ANOVA and a p-value of <0.05 is considered statistically significant.
To quantify fibrosis in muscles, western blotting is performed on muscle extracts using an antibody against collagen VI (Santa Cruz Biotechnology, Santa Cruz, Calif.). Protein extracts are made from muscles as reported (Gurpur et al., 2009) and the Bradford assay is done to determine protein concentrations. Western blotting is carried out using 1:1000 dilution of the anti-collagen VI antibody. The blots are re-probed with an antibody against tubulin to ensure equal protein loading. Band intensities are quantified using the LiCor Odyssey software (LiCor Biosciences, Lincoln, Neb.). Ratio of the collagen VI to tubulin band-intensities is calculated. […] Data is analyzed by ANOVA and a p-value of <0.05 is considered statistically significant.
Muscle fiber loss due to apoptosis is a significant problem in MDC1A patients. To determine if VPA treatment decreases apoptosis in dyw muscle, after the course of injections, mice are sacrificed and the gastrocnemius-soleus, quadriceps and diaphragm harvested. Tissues are sectioned on a Leica CM 1850 cryostat to 10 μm. The DeadEnd fluorometric TUNEL assay kit (Promega, Madison, Wis.) is used as per the manufacturer's instructions to label apoptotic nuclei in the cryosections. The total number of nuclei (DAPI labeled, fluorescing blue) and the apoptotic nuclei (fluorescing green) are counted in 15 random fields for each muscle, for each mouse. The proportion of apoptotic nuclei is quantified and compared between the VPA injected and control mice. […] Data is analyzed by ANOVA and a p-value of <0.05 is considered statistically significant.
VPA is administered to male dyw mice (n=11 each) daily for 6 weeks with 80 mg/kg or 240 mg/kg body weight of VPA starting at 10 days of age. Daily body weights are noted and mice are observed for signs of overt toxicity. Control mice are injected with the same volumes of sterile saline.
After the course of injections, mice are sacrificed and the gastrocnemius-soleus, quadriceps and diaphragm harvested. Protein extracts are made from the muscles as reported (Gurpur et al., 2009). […]

α7+/− myotubes = experiment: Quantification of apoptosis in myotubes (TUNEL assay); type: cell-based, mouse
Description: Differentiating cultures of α7^+/− cells on 1% gelatin-coated Lab-Tek 8-well chamber slides (Nalge-Nunc International) were exposed to 2 mM VPA on day two of differentiation, and fresh VPA in differentiation medium was added every 24 hours. On day eight of differentiation, the DeadEnd Fluorometric TUNEL assay (Promega) was used to label apoptotic nuclei, following the manufacturer's instructions. The numbers of clusters of apoptotic nuclei in each chamber were counted.

CCCC(CCC)C(=O)O [VPA, valproic acid]
half-life [1]: about 45 minutes
Akt pathway in skeletal muscle of dyw mice (dyw mouse model of MDC1A): activates the Akt pathway
apoptosis in skeletal muscle of dyw mice (dyw mouse model of MDC1A): inhibiting apoptosis
fiber-diameter variation in skeletal muscle of dyw mice (dyw mouse model of MDC1A): decreasing fiber-diameter variation
fibrosis in skeletal muscle of dyw mice (dyw mouse model of MDC1A): decreasing fibrosis
pathology in dyw mice (dyw mouse model of MDC1A): ameliorate pathology
fewer apoptotic nuclei (TUNEL positive nuclear clusters) compared with control cells (α7+/− myotubes; 2 mM VPA from day 2 of differentiation, day 6 of treatment): greater than 5 fold
appearance of cultures after day 8 (controls vacuolated, some detachment) (α7+/− myotubes; 2 mM VPA, phase-contrast): appeared relatively normal
